Earlier results in patent publication US10064865B2, “Composition comprising phosphodiesterase type 5 inhibitor for inhibiting apoptosis of nerve cells” (ARIBIO INC., priority 2012, dated 2018).

System: B-chronic lymphocytic leukemia cells
Conditions: Marika Sarfati et al., BLOOD 2003; cited from earlier work

CCCc1nn(C)c2c(=O)[nH]c(-c3cc(S(=O)(=O)N4CCN(C)CC4)ccc3OCC)nc12 [sildenafil]
apoptosis of B-chronic lymphocytic leukemia cells: induce caspase-dependent apoptosis
